BindingDB's records for doi:10.1021/jm00022a011 (Upjohn Laboratories, 1995)

tested on: HIV-I infected H9 cells (antiviral activity); test: Antiviral activity against HIV-I infected H9 cells

IC50 [µM]	SMILES
> 60	CCNC(=O)Nc1cccc(C(c2c(O)c3c(oc2=O)CCCCCC3)C2CC2)c1 (configuration not stated) [1-{3-[Cyclopropyl-(4-hydroxy-2-oxo-5,6,7,8,9,10-hexahydro-2H-cycloocta[b]pyran-3-yl)-methyl]-phenyl}-3-ethyl-urea]
21.7	O=C(Nc1ccccc1)Nc1cccc(C(c2c(O)c3c(oc2=O)CCCCCC3)C2CC2)c1 (configuration not stated) [1-{3-[Cyclopropyl-(4-hydroxy-2-oxo-5,6,7,8,9,10-hexahydro-2H-cycloocta[b]pyran-3-yl)-methyl]-phenyl}-3-phenyl-urea]
5.3	CCCC1CCCCCCc2c1oc(=O)c(C(c1ccccc1)C1CC1)c2O (configuration not stated) [3-(Cyclopropyl-phenyl-methyl)-4-hydroxy-11-propyl-6,7,8,9,10,11-hexahydro-5H-cyclonona[b]pyran-2-one]
33.4	CC(C)(C)OC(=O)NCCC(=O)Nc1cccc(C(c2c(O)c3c(oc2=O)CCCCCC3)C2CC2)c1 (configuration not stated) [(2-{3-[Cyclopropyl-(4-hydroxy-2-oxo-5,6,7,8,9,10-hexahydro-2H-cycloocta[b]pyran-3-yl)-methyl]-phenylcarbamoyl}-ethyl)-carbamic acid tert-butyl ester]
49.5	CC(C)(C)OC(=O)NCCCC(=O)Nc1cccc(C(c2c(O)c3c(oc2=O)CCCCCC3)C2CC2)c1 (configuration not stated) [(3-{3-[Cyclopropyl-(4-hydroxy-2-oxo-5,6,7,8,9,10-hexahydro-2H-cycloocta[b]pyran-3-yl)-methyl]-phenylcarbamoyl}-propyl)-carbamic acid tert-butyl ester]
> 60	C[C@@H](NC(=O)OC(C)(C)C)C(=O)Nc1cccc(C(c2c(O)c3c(oc2=O)CCCCCC3)C2CC2)c1 (stereo partly drawn) [((R)-1-{3-[Cyclopropyl-(4-hydroxy-2-oxo-5,6,7,8,9,10-hexahydro-2H-cycloocta[b]pyran-3-yl)-methyl]-phenylcarbamoyl}-ethyl)-carbamic acid tert-butyl ester]
31.8	C[C@H](NC(=O)OC(C)(C)C)C(=O)Nc1cccc(C(c2c(O)c3c(oc2=O)CCCCCC3)C2CC2)c1 (stereo partly drawn) [((S)-1-{3-[Cyclopropyl-(4-hydroxy-2-oxo-5,6,7,8,9,10-hexahydro-2H-cycloocta[b]pyran-3-yl)-methyl]-phenylcarbamoyl}-ethyl)-carbamic acid tert-butyl ester]
17.1	O=C(C=Cc1ccccc1)Nc1cccc(C(c2c(O)c3c(oc2=O)CCCCCC3)C2CC2)c1 (configuration not stated) [(E)-N-{3-[Cyclopropyl-(4-hydroxy-2-oxo-5,6,7,8,9,10-hexahydro-2H-cycloocta[b]pyran-3-yl)-methyl]-phenyl}-3-phenyl-acrylamide]
29.2	CC(C)(C)OC(=O)N1CCC[C@H]1C(=O)Nc1cccc(C(c2c(O)c3c(oc2=O)CCCCCC3)C2CC2)c1 (stereo partly drawn) [(S)-2-{3-[Cyclopropyl-(4-hydroxy-2-oxo-5,6,7,8,9,10-hexahydro-2H-cycloocta[b]pyran-3-yl)-methyl]-phenylcarbamoyl}-pyrrolidine-1-carboxylic acid tert-butyl ester]
29.8	CC(C)(C)OC(=O)NCC(=O)Nc1cccc(C(c2c(O)c3c(oc2=O)CCCCCC3)C2CC2)c1 (configuration not stated) [({3-[Cyclopropyl-(4-hydroxy-2-oxo-5,6,7,8,9,10-hexahydro-2H-cycloocta[b]pyran-3-yl)-methyl]-phenylcarbamoyl}-methyl)-carbamic acid tert-butyl ester]
17.3	O=C(Cc1ccccc1)Nc1cccc(C(c2c(O)c3c(oc2=O)CCCCCC3)C2CC2)c1 (configuration not stated) [N-{3-[Cyclopropyl-(4-hydroxy-2-oxo-5,6,7,8,9,10-hexahydro-2H-cycloocta[b]pyran-3-yl)-methyl]-phenyl}-2-phenyl-acetamide]
21.9	O=C(Nc1cccc(C(c2c(O)c3c(oc2=O)CCCCCC3)C2CC2)c1)c1ccc(F)cc1 (configuration not stated) [N-{3-[Cyclopropyl-(4-hydroxy-2-oxo-5,6,7,8,9,10-hexahydro-2H-cycloocta[b]pyran-3-yl)-methyl]-phenyl}-4-fluoro-benzamide]
23.5	O=C(Nc1cccc(C(c2c(O)c3c(oc2=O)CCCCCC3)C2CC2)c1)c1ccccc1 (configuration not stated) [N-{3-[Cyclopropyl-(4-hydroxy-2-oxo-5,6,7,8,9,10-hexahydro-2H-cycloocta[b]pyran-3-yl)-methyl]-phenyl}-benzamide]
35.1	CCCC(=O)Nc1cccc(C(c2c(O)c3c(oc2=O)CCCCCC3)C2CC2)c1 (configuration not stated) [N-{3-[Cyclopropyl-(4-hydroxy-2-oxo-5,6,7,8,9,10-hexahydro-2H-cycloocta[b]pyran-3-yl)-methyl]-phenyl}-butyramide]
45.3	CC(C)(C)OC(=O)N[C@@H](Cc1cnc[nH]1)C(=O)Nc1cccc(C(c2c(O)c3c(oc2=O)CCCCCC3)C2CC2)c1 (stereo partly drawn) [[(S)-1-{3-[Cyclopropyl-(4-hydroxy-2-oxo-5,6,7,8,9,10-hexahydro-2H-cycloocta[b]pyran-3-yl)-methyl]-phenylcarbamoyl}-2-(1H-imidazol-4-yl)-ethyl]-carbamic acid tert-butyl ester]

molecular target: Human immunodeficiency virus type 1 protease (Human immunodeficiency virus 1, UniProt Q72874); test: Inhibitory activity against HIV-I protease.

Ki [µM]	SMILES
0.024	O=c1oc2c(c(O)c1C(c1ccccc1)C1CC1)CCCCCC2CC1CC1 (configuration not stated) [10-Cyclopropylmethyl-3-(cyclopropyl-phenyl-methyl)-4-hydroxy-5,6,7,8,9,10-hexahydro-cycloocta[b]pyran-2-one]
0.024	O=c1oc2c(c(O)c1C(c1ccccc1)C1CC1)CCCCCCC2CC1CC1 (configuration not stated) [11-Cyclopropylmethyl-3-(cyclopropyl-phenyl-methyl)-4-hydroxy-6,7,8,9,10,11-hexahydro-5H-cyclonona[b]pyran-2-one]
